Experimental data published in PubChem BioAssay (NCI).
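Compound exposure: 48 hours, 5 concentrations, 96-well plates. At the GI50, growth is halved. TGI denotes the concentration required for complete inhibition of growth.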

Legend:
Test in all cases: NCI anticancer screen, dose series, 48 h
786-0 renal = test system: 786-0 renal
A498 renal = test system: A498 renal
A549 NSCLC = test system: A549 NSCLC
ACHN renal = test system: ACHN renal
BT-549 breast = test system: BT-549 breast
CAKI-1 renal = test system: CAKI-1 renal
CCRF-CEM leukemia = test system: CCRF-CEM leukemia
COLO 205 colon = test system: COLO 205 colon
DU-145 prostate = test system: DU-145 prostate
EKVX NSCLC = test system: EKVX NSCLC
HCC-2998 colon = test system: HCC-2998 colon
HCT-116 colon = test system: HCT-116 colon
HCT-15 colon = test system: HCT-15 colon
HL-60(TB) leukemia = test system: HL-60(TB) leukemia
HOP-62 NSCLC = test system: HOP-62 NSCLC
HOP-92 NSCLC = test system: HOP-92 NSCLC
HS 578T breast = test system: HS 578T breast
HT29 colon = test system: HT29 colon
IGROV1 ovarian = test system: IGROV1 ovarian
K-562 leukemia = test system: K-562 leukemia
KM12 colon = test system: KM12 colon
LOX IMVI melanoma = test system: LOX IMVI melanoma
M14 melanoma = test system: M14 melanoma
MALME-3M melanoma = test system: MALME-3M melanoma
MCF7 breast = test system: MCF7 breast
MDA-MB-231 breast = test system: MDA-MB-231 breast
MDA-MB-435 = test system: MDA-MB-435
MDA-N = test system: MDA-N
MOLT-4 leukemia = test system: MOLT-4 leukemia
NCI-H226 lung = test system: NCI-H226 lung
NCI-H23 lung = test system: NCI-H23 lung
NCI-H460 lung = test system: NCI-H460 lung
NCI-H522 lung = test system: NCI-H522 lung
NCI/ADR-RES ovarian = test system: NCI/ADR-RES ovarian
OVCAR-3 ovarian = test system: OVCAR-3 ovarian
OVCAR-4 ovarian = test system: OVCAR-4 ovarian
OVCAR-5 ovarian = test system: OVCAR-5 ovarian
OVCAR-8 ovarian = test system: OVCAR-8 ovarian
PC-3 prostate = test system: PC-3 prostate
RPMI-8226 leukemia = test system: RPMI-8226 leukemia
SF-268 CNS = test system: SF-268 CNS
SF-295 CNS = test system: SF-295 CNS
SF-539 CNS = test system: SF-539 CNS
SK-MEL-2 melanoma = test system: SK-MEL-2 melanoma
SK-MEL-28 melanoma = test system: SK-MEL-28 melanoma
SK-MEL-5 melanoma = test system: SK-MEL-5 melanoma
SK-OV-3 ovarian = test system: SK-OV-3 ovarian
SN12C renal = test system: SN12C renal
SNB-19 CNS = test system: SNB-19 CNS
SNB-75 CNS = test system: SNB-75 CNS
SR leukemia = test system: SR leukemia
SW-620 colon = test system: SW-620 colon
T-47D breast = test system: T-47D breast
TK-10 renal = test system: TK-10 renal
U251 CNS = test system: U251 CNS
UACC-257 melanoma = test system: UACC-257 melanoma
UACC-62 melanoma = test system: UACC-62 melanoma
UO-31 renal = test system: UO-31 renal
RXF 393 renal = test system: RXF 393 renal

## Cc1ccnc2[nH]c(-c3ccc4ccccc4c3)cc(=O)c12
786-0 renal
  TGI: 5.97 µM
A498 renal
  TGI: 4.87 µM
A549 NSCLC
  TGI: 16.1 µM
ACHN renal
  TGI: 13.6 µM
BT-549 breast
  TGI: 31.8 µM
CAKI-1 renal
  GI50: 2.39 µM
  TGI: 14.4 µM
CCRF-CEM leukemia
  TGI: 8.43 µM
COLO 205 colon
  TGI: 13.3 µM
DU-145 prostate
  TGI: 35.1 µM
EKVX NSCLC
  TGI: 26.8 µM
HCC-2998 colon
  TGI: 19.4 µM
HCT-116 colon
  GI50: 0.428 µM
  TGI: 2.31 µM
HCT-15 colon
  TGI: 10.8 µM
HL-60(TB) leukemia
  GI50: 0.202 µM
  TGI: 0.609 µM
HOP-62 NSCLC
  TGI: 12.6 µM
HOP-92 NSCLC
  TGI: 4.78 µM
HS 578T breast
  TGI: 5.6 µM
HT29 colon
  TGI: 12.4 µM
IGROV1 ovarian
  TGI: 11.1 µM
K-562 leukemia
  TGI: 6.52 µM
KM12 colon
  TGI: 20.6 µM
LOX IMVI melanoma
  TGI: 12.2 µM
M14 melanoma
  TGI: 23.2 µM
MALME-3M melanoma
  TGI: 18.6 µM
MCF7 breast
  TGI: 3.91 µM
MDA-MB-231 breast
  TGI: 8.58 µM
MDA-MB-435
  GI50: 0.204 µM
  TGI: 0.453 µM
MDA-N
  GI50: 0.206 µM
  TGI: 0.448 µM
MOLT-4 leukemia
  TGI: > 100 µM
NCI-H226 lung
  TGI: 11.4 µM
NCI-H23 lung
  TGI: 15.3 µM
NCI-H460 lung
  GI50: 1.05 µM
  TGI: 7.34 µM
NCI-H522 lung
  TGI: 3.42 µM
NCI/ADR-RES ovarian
  TGI: 7.14 µM
OVCAR-3 ovarian
  GI50: 1.29 µM
  TGI: 4.51 µM
OVCAR-4 ovarian
  TGI: 4.45 µM
OVCAR-5 ovarian
  TGI: 23.5 µM
OVCAR-8 ovarian
  TGI: 14 µM
PC-3 prostate
  GI50: 1.38 µM
  TGI: 6.06 µM
RPMI-8226 leukemia
  TGI: 8.05 µM
SF-268 CNS
  TGI: 39.4 µM
SF-295 CNS
  GI50: 1.49 µM
  TGI: 10.9 µM
SF-539 CNS
  TGI: 6.79 µM
SK-MEL-2 melanoma
  TGI: 28.2 µM
SK-MEL-28 melanoma
  TGI: 14.9 µM
SK-MEL-5 melanoma
  GI50: 0.437 µM
  TGI: 12.7 µM
SK-OV-3 ovarian
  TGI: 5.32 µM
SN12C renal
  TGI: 18.7 µM
SNB-19 CNS
  TGI: 31 µM
SNB-75 CNS
  TGI: 4.6 µM
SR leukemia
  TGI: 0.919 µM
SW-620 colon
  TGI: 13.9 µM
T-47D breast
  TGI: 34.6 µM
TK-10 renal
  TGI: 13.4 µM
U251 CNS
  GI50: 0.644 µM
  TGI: 10.4 µM
UACC-257 melanoma
  TGI: 32.8 µM
UACC-62 melanoma
  TGI: 9 µM
UO-31 renal
  TGI: 16 µM

## CC(C)(C)OC(=O)NC1CCCCC1NC(=O)C(=O)NC1CCCCC1NC(=O)OC(C)(C)C (stereo not given)
786-0 renal
  TGI: > 100 µM
A498 renal
  TGI: 79.6 µM
A549 NSCLC
  TGI: > 100 µM
ACHN renal
  TGI: > 100 µM
BT-549 breast
  TGI: > 100 µM
CAKI-1 renal
  TGI: > 100 µM
CCRF-CEM leukemia
  TGI: > 100 µM
COLO 205 colon
  TGI: > 100 µM
DU-145 prostate
  TGI: > 100 µM
EKVX NSCLC
  TGI: > 100 µM
HCC-2998 colon
  TGI: > 100 µM
HCT-116 colon
  TGI: > 100 µM
HCT-15 colon
  TGI: > 100 µM
HL-60(TB) leukemia
  TGI: > 100 µM
HOP-62 NSCLC
  TGI: 80.6 µM
HOP-92 NSCLC
  TGI: 45 µM
HS 578T breast
  TGI: 57.1 µM
HT29 colon
  TGI: > 100 µM
IGROV1 ovarian
  TGI: > 100 µM
K-562 leukemia
  TGI: > 100 µM
KM12 colon
  TGI: > 100 µM
LOX IMVI melanoma
  TGI: > 100 µM
M14 melanoma
  TGI: > 100 µM
MALME-3M melanoma
  TGI: > 100 µM
MCF7 breast
  TGI: > 100 µM
MDA-MB-231 breast
  TGI: > 100 µM
MDA-MB-435
  TGI: > 100 µM
MDA-N
  TGI: > 100 µM
MOLT-4 leukemia
  TGI: > 100 µM
NCI-H226 lung
  TGI: > 100 µM
NCI-H23 lung
  TGI: > 100 µM
NCI-H460 lung
  TGI: > 100 µM
NCI-H522 lung
  TGI: > 100 µM
NCI/ADR-RES ovarian
  TGI: > 100 µM
OVCAR-3 ovarian
  TGI: > 100 µM
OVCAR-4 ovarian
  TGI: > 100 µM
OVCAR-5 ovarian
  TGI: > 100 µM
OVCAR-8 ovarian
  TGI: > 100 µM
PC-3 prostate
  TGI: > 100 µM
RPMI-8226 leukemia
  TGI: > 100 µM
RXF 393 renal
  TGI: 38.8 µM
SF-268 CNS
  TGI: > 100 µM
SF-295 CNS
  TGI: > 100 µM
SF-539 CNS
  TGI: > 100 µM
SK-MEL-2 melanoma
  TGI: > 100 µM
SK-MEL-28 melanoma
  TGI: > 100 µM
SK-MEL-5 melanoma
  TGI: > 100 µM
SK-OV-3 ovarian
  TGI: > 100 µM
SN12C renal
  TGI: > 100 µM
SNB-19 CNS
  TGI: > 100 µM
SR leukemia
  TGI: > 100 µM
SW-620 colon
  TGI: > 100 µM
T-47D breast
  TGI: > 100 µM
TK-10 renal
  TGI: > 100 µM
U251 CNS
  TGI: > 100 µM
UACC-257 melanoma
  TGI: > 100 µM
UACC-62 melanoma
  TGI: 92.9 µM
UO-31 renal
  TGI: > 100 µM

## COc1cccc(C2c3cc4c(cc3OC(N3CCCCC3)C2C)OCO4)c1O (stereo not given)
786-0 renal
  TGI: 26.2 µM
A549 NSCLC
  TGI: > 66.5 µM
ACHN renal
  TGI: 56.5 µM
BT-549 breast
  TGI: 54.9 µM
CAKI-1 renal
  TGI: > 53 µM
CCRF-CEM leukemia
  TGI: 13.9 µM
COLO 205 colon
  TGI: 25.5 µM
DU-145 prostate
  TGI: 96.9 µM
EKVX NSCLC
  TGI: 56.8 µM
HCC-2998 colon
  TGI: 25.6 µM
HCT-116 colon
  TGI: 19.9 µM
HCT-15 colon
  TGI: 19.9 µM
HL-60(TB) leukemia
  TGI: 5.92 µM
HOP-62 NSCLC
  TGI: 13.7 µM
HOP-92 NSCLC
  TGI: 46.8 µM
HS 578T breast
  TGI: > 26.4 µM
HT29 colon
  TGI: 13.3 µM
IGROV1 ovarian
  TGI: > 100 µM
K-562 leukemia
  TGI: 12.7 µM
KM12 colon
  TGI: 23.1 µM
LOX IMVI melanoma
  TGI: 41.7 µM
M14 melanoma
  TGI: 22.6 µM
MALME-3M melanoma
  TGI: 36.1 µM
MCF7 breast
  TGI: 57.7 µM
MDA-MB-231 breast
  TGI: > 56.7 µM
MDA-MB-435
  TGI: 6.82 µM
MDA-N
  TGI: 7.71 µM
MOLT-4 leukemia
  TGI: 37.6 µM
NCI-H226 lung
  TGI: 46.7 µM
NCI-H23 lung
  TGI: > 71.6 µM
NCI-H460 lung
  TGI: 24.4 µM
NCI-H522 lung
  TGI: 8.53 µM
NCI/ADR-RES ovarian
  TGI: > 100 µM
OVCAR-3 ovarian
  TGI: 9.14 µM
OVCAR-4 ovarian
  TGI: > 100 µM
OVCAR-5 ovarian
  TGI: 57.7 µM
OVCAR-8 ovarian
  TGI: > 36.5 µM
PC-3 prostate
  TGI: > 79.8 µM
RPMI-8226 leukemia
  TGI: 12.3 µM
RXF 393 renal
  TGI: 18.7 µM
SF-268 CNS
  TGI: 99.8 µM
SF-295 CNS
  TGI: 24.3 µM
SF-539 CNS
  TGI: 5.82 µM
SK-MEL-2 melanoma
  TGI: 42.5 µM
SK-MEL-28 melanoma
  TGI: 73.2 µM
SK-MEL-5 melanoma
  TGI: 16.3 µM
SK-OV-3 ovarian
  TGI: > 79.1 µM
SN12C renal
  TGI: 19.4 µM
SNB-19 CNS
  TGI: > 100 µM
SNB-75 CNS
  TGI: 68.5 µM
SR leukemia
  TGI: 11.8 µM
SW-620 colon
  TGI: > 87.8 µM
T-47D breast
  TGI: 80 µM
TK-10 renal
  TGI: 62.8 µM
U251 CNS
  TGI: 16.2 µM
UACC-257 melanoma
  TGI: > 56.6 µM
UACC-62 melanoma
  TGI: 28.2 µM
UO-31 renal
  TGI: 81.1 µM
